Measured values from paper PMC7612079 (Science translational medicine, 2021).

How the values were obtained:
Format in all cases: biochemical
[1] = molecular target: T1, ULK1 (unc-51–like autophagy activating kinase 1) (Homo sapiens, UniProt O75385); assay: single-point kinase panel at […]; details: read-out: % inhibition at 1 μM
T1 sequence (O75385 1-1050): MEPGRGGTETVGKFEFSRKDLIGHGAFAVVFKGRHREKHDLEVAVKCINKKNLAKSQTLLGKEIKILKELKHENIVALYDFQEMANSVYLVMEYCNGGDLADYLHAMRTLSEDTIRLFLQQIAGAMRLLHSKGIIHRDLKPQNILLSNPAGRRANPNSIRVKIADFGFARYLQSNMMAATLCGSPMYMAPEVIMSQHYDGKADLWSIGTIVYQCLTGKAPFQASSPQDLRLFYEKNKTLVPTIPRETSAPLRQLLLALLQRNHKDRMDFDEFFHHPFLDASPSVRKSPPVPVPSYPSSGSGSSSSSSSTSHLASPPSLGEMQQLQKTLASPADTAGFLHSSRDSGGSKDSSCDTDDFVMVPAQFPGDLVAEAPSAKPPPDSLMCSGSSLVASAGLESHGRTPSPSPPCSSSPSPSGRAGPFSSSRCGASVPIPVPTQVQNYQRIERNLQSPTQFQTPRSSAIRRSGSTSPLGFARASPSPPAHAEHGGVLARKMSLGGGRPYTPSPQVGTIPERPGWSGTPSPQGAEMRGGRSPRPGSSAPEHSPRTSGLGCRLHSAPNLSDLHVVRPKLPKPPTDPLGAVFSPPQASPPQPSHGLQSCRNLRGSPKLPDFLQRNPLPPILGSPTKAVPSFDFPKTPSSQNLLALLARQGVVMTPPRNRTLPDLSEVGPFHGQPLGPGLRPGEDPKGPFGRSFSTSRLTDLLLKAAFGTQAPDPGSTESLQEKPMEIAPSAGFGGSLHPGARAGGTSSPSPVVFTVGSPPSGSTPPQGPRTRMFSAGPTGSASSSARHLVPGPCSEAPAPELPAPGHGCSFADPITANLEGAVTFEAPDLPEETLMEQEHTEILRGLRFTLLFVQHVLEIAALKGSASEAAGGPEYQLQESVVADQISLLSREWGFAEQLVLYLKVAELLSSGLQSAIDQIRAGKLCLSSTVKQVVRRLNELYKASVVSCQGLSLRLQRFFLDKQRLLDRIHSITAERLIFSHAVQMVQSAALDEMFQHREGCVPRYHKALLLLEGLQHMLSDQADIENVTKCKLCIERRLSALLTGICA

TANK-binding kinase 1 = molecular target: T2, TANK-binding kinase 1 (Homo sapiens, UniProt Q9UHD2); assay: single-point panel of […] kinases at […]; details: read-out: % inhibition at 1 μM
T2 sequence (Q9UHD2 1-729): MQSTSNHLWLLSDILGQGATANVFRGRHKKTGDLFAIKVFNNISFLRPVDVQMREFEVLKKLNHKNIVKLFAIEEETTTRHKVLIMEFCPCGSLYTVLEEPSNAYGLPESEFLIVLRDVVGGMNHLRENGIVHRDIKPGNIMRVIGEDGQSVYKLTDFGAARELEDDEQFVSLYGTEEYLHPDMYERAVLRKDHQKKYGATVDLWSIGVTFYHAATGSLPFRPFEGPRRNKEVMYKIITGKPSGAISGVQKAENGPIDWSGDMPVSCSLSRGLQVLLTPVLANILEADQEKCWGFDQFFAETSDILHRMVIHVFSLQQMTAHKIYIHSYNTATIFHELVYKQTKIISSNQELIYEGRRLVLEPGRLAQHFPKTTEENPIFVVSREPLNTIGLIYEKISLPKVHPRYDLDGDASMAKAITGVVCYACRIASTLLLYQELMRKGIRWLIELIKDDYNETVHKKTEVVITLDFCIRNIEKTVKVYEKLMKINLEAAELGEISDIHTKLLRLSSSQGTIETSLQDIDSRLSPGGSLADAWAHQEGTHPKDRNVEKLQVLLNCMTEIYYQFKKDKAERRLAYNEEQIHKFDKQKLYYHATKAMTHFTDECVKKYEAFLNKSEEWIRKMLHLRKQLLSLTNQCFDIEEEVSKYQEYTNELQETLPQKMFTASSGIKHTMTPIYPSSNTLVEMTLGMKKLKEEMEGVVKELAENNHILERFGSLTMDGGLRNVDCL

AMPK = AMPK (Homo sapiens, UniProt P54646); assay: single-point panel of […] kinases at […]; details: read-out: % inhibition at 1 μM
ULK2 = molecular target: T3, ULK2 (Homo sapiens, UniProt Q8IYT8); assay: single-point kinase panel at […]
T3 sequence (Q8IYT8 1-1036): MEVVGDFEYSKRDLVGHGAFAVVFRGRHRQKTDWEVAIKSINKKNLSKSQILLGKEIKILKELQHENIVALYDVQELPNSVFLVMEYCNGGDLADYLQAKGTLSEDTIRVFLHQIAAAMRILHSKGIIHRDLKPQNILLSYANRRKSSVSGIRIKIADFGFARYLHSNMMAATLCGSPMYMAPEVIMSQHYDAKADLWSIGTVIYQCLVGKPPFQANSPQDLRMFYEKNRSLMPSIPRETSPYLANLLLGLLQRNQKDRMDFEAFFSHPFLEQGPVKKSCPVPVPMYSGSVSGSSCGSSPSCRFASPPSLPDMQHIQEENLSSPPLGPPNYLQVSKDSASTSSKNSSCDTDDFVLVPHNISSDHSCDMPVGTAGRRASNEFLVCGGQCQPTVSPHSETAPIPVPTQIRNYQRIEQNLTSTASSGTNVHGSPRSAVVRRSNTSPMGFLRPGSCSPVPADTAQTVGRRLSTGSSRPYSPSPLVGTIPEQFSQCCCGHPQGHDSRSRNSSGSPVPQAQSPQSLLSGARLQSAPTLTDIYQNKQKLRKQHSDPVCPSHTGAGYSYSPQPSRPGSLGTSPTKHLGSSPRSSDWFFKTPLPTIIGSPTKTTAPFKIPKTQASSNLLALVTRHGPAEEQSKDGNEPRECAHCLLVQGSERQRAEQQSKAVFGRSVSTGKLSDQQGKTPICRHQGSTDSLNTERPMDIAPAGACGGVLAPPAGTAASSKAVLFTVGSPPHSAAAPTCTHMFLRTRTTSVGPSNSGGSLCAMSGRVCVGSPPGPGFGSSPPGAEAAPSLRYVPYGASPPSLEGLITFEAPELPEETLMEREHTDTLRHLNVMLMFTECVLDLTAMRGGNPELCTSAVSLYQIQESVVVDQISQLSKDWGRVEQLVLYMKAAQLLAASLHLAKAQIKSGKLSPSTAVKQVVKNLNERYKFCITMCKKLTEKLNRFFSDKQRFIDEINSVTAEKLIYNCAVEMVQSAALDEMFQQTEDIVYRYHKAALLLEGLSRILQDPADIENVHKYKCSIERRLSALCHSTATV

[2] = molecular target: T1, ULK1 (unc-51–like autophagy activating kinase 1); assay: radiometric […] kinase assay with myelin basic protein, […] ATP

Sequence of AMPK (P54646 whole entry): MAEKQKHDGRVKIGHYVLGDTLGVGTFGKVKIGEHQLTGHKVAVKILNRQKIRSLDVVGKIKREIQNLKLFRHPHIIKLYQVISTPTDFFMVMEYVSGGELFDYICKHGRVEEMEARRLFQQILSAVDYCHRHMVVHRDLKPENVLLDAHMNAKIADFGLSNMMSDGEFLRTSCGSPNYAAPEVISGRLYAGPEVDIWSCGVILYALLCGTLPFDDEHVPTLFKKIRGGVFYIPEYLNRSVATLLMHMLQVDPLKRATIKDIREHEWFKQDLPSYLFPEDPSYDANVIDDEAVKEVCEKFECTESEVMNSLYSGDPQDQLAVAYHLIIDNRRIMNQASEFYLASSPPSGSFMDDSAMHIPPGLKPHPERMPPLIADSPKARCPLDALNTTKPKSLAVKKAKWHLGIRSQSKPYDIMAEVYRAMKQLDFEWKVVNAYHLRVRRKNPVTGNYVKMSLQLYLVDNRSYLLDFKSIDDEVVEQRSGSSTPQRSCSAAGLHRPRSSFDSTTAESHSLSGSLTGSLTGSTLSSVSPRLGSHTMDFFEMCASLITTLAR
Sequence of AMPK (Q9Y478 2-270 partner): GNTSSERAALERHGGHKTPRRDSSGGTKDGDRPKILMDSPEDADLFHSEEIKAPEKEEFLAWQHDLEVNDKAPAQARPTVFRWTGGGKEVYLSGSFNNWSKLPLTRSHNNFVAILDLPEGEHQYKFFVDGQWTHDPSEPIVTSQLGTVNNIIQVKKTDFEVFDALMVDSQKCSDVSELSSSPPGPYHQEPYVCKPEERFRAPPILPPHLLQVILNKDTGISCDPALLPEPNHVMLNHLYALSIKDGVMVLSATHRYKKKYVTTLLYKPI
Sequence of AMPK (P54619 whole entry partner): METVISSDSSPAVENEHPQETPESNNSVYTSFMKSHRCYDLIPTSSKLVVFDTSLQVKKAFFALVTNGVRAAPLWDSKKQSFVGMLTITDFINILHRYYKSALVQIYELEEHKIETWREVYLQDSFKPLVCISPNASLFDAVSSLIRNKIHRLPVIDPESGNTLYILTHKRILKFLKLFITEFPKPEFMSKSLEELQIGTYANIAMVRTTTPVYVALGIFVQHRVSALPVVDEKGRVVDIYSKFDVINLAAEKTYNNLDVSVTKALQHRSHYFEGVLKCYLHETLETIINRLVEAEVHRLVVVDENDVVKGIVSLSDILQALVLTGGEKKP

Row | inhibition at 1 µM [1] [%] | inhibition at 1 µM (TANK-binding kinase 1) [%] | inhibition at 1 µM (AMPK) [%] | inhibition at 1 µM (ULK2; read-out: % inhibition at 1 μM) [%] | IC50 [2] [nM] | % inhibition at 1 μM (ULK2) | Compound
1 | > 90 | > 90 | > 90 | > 90 | – | – | CN1CCc2cc(Nc3ncc(C4CC4)c(NCCCNC(=O)C4CCC4)n3)ccc2C1 [MRT68921]
2 | – | – | – | – | 1.6 | > 90 | MRT403
